Values of other authors as cited in patent publication US20230346652A1, “Foaming Hand Sanitizer with High Alcohol Content” (Ele' Corporation, priority 2021, published 2023).

Key:
[1] = system: certain non-enveloped viruses

## CCO [ethanol]
Enveloped viruses
  ethanol concentration effective within 30 seconds: less than 75 % (by weight)
[1]
  ethanol concentration necessary to kill within 30 seconds: up to 95%
